The structures appear in SMILES notation.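 Where inhibition never reached the appropriate level, the endpoint shown equals the highest concentration tested. Otherwise, values were interpolated linearly from a five-concentration, 48-hour dose response in 96-well plates. GI50 = concentration required for 50% inhibition of growth. At the TGI there is no net growth.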

Here are results for eight molecules from PubChem BioAssay (NCI).

Among the test systems are MCF7 breast; HOP-62 NSCLC; LOX IMVI melanoma; HOP-92 NSCLC; NCI-H522 lung; SK-OV-3 ovarian; SK-MEL-5 melanoma; HL-60(TB) leukemia; EKVX NSCLC; IGROV1 ovarian.
Assay in all cases: NCI anticancer screen, dose series, 48 h

Take `CCSc1ccc([C@@H]2[C@@H](N)C(=O)N2c2cc(OC)c(OC)c(OC)c2)cc1`: the GI50 with MCF7 breast was 0.0392 µM; in the test with HOP-62 NSCLC, 0.06 µM; in the test on LOX IMVI melanoma it was 0.0754 µM; in the test with HOP-92 NSCLC, 30.2 µM; in the test with NCI-H522 lung it was 0.0238 µM; in the test on SK-OV-3 ovarian, 0.0545 µM. The GI50 was 0.0783 µM with SK-MEL-5 melanoma, 0.0257 µM with HL-60(TB) leukemia, 0.638 µM in the test on EKVX NSCLC and 1.43 µM in the test with IGROV1 ovarian. The TGI was > 100 µM with MCF7 breast; > 100 µM in the test on HOP-62 NSCLC; > 100 µM in the test with LOX IMVI melanoma; > 100 µM in the test with HOP-92 NSCLC; 0.0966 µM with NCI-H522 lung; > 100 µM with SK-OV-3 ovarian. Moreover, the TGI in the test on SK-MEL-5 melanoma is > 100 µM; in the test with HL-60(TB) leukemia it was 0.067 µM; with EKVX NSCLC it was > 100 µM; in the test on IGROV1 ovarian it was > 100 µM.

Take `CCCCCCCCCCCCCCCC(=O)OCC1OC(OC)C(NC(=O)N(CCCl)N=O)C(O)C1O` (stereo not given): the TGI is > 100 µM with MCF7 breast; 31.9 µM in the test on HOP-62 NSCLC; 17.5 µM in the test on LOX IMVI melanoma; 47.8 µM with HOP-92 NSCLC; 34.7 µM in the test with NCI-H522 lung; 63 µM with SK-OV-3 ovarian. For the same molecule, the TGI with SK-MEL-5 melanoma was 59.9 µM; in the test with HL-60(TB) leukemia, 28.3 µM; with EKVX NSCLC, > 87.5 µM; in the test on IGROV1 ovarian, 54 µM.

On to `COc1ccc(/C=C\c2cc(OC)c(OC)c(OC)c2)cc1OCC(=O)Nc1nc2ccccc2s1`, for which the GI50 in the test with MCF7 breast is 0.113 µM; in the test on HOP-62 NSCLC it was 0.298 µM; in the test with LOX IMVI melanoma, 0.0808 µM; in the test on HOP-92 NSCLC, 0.204 µM; in the test with NCI-H522 lung, 0.049 µM; in the test on SK-OV-3 ovarian it was 0.374 µM. In addition, the GI50 is 0.0405 µM in the test with SK-MEL-5 melanoma, 0.0275 µM in the test on HL-60(TB) leukemia, 3.65 µM in the test on EKVX NSCLC and 0.221 µM with IGROV1 ovarian. Besides, the TGI in the test with MCF7 breast is > 100 µM; in the test on HOP-62 NSCLC it was > 100 µM; in the test with LOX IMVI melanoma, > 100 µM; in the test on HOP-92 NSCLC, > 31.1 µM; in the test on NCI-H522 lung, 0.338 µM; with SK-OV-3 ovarian it was > 100 µM. Moreover, the TGI is 0.263 µM in the test on SK-MEL-5 melanoma, > 100 µM in the test on HL-60(TB) leukemia, > 100 µM with EKVX NSCLC and > 81.4 µM with IGROV1 ovarian.

As for `COc1cc(-c2nc(-c3ccc(-c4nc5ccc(F)cc5[nH]4)cc3)no2)cc(OC)c1OC`, the GI50 in the test on MCF7 breast was 2.88 µM; in the test on HOP-62 NSCLC it was 3.21 µM; in the test with LOX IMVI melanoma, 1.65 µM; with HOP-92 NSCLC, 1.76 µM; in the test on NCI-H522 lung, 3.04 µM; with SK-OV-3 ovarian it was 4.12 µM. For the same molecule, the GI50 is 2.22 µM with SK-MEL-5 melanoma, 2.24 µM in the test with HL-60(TB) leukemia, 3.45 µM with EKVX NSCLC and 3.81 µM with IGROV1 ovarian. Further, the TGI in the test with MCF7 breast was 13.5 µM; with HOP-62 NSCLC, 9.15 µM; in the test with LOX IMVI melanoma it was 3.73 µM; in the test on HOP-92 NSCLC, 13.9 µM; in the test on NCI-H522 lung, 8.98 µM; with SK-OV-3 ovarian, 31.4 µM. Moreover, the TGI is 10.2 µM in the test on SK-MEL-5 melanoma, 5.35 µM with HL-60(TB) leukemia, 27.4 µM in the test with EKVX NSCLC and 14.5 µM in the test with IGROV1 ovarian.

For `CC(C)=CC(=O)N[C@@H]1CC2CCC3C(CC[C@@]4(C)C3CC[C@@H]4C(C)N(C)C)[C@@]2(C)C[C@@H]1O` (stereo not given in full), the GI50 with MCF7 breast is 2.95 µM; in the test with HOP-62 NSCLC it was 4.3 µM; with LOX IMVI melanoma it was 1.54 µM; in the test on HOP-92 NSCLC it was 2.37 µM; in the test on NCI-H522 lung, 7.47 µM; with SK-OV-3 ovarian it was 10.4 µM. The GI50 with SK-MEL-5 melanoma was 1.57 µM; in the test with HL-60(TB) leukemia, 1.61 µM; in the test with EKVX NSCLC it was 3.12 µM; with IGROV1 ovarian it was 5.54 µM. In addition, the TGI in the test with MCF7 breast was 21.1 µM; with HOP-62 NSCLC, 9.85 µM; in the test with LOX IMVI melanoma, 3.97 µM; in the test on HOP-92 NSCLC it was 24.2 µM; with NCI-H522 lung, 31.3 µM; in the test with SK-OV-3 ovarian it was 24.6 µM. In addition, the TGI was 4.17 µM in the test on SK-MEL-5 melanoma, 6.14 µM with HL-60(TB) leukemia, > 100 µM in the test with EKVX NSCLC and 25.1 µM in the test with IGROV1 ovarian.

In the case of `O=C1/C(=C/c2ccc(Cl)c(Cl)c2)CNC/C1=C\c1ccc(Cl)c(Cl)c1`, the TGI in the test with MCF7 breast came to 50 µM; in the test with HOP-62 NSCLC, 38.8 µM; in the test with LOX IMVI melanoma, 13.5 µM; in the test with HOP-92 NSCLC, 50.7 µM; in the test on NCI-H522 lung it was 26.7 µM; with SK-OV-3 ovarian, 69.6 µM. For the same molecule, the TGI in the test with SK-MEL-5 melanoma is > 70.4 µM; in the test on HL-60(TB) leukemia, > 64.2 µM; in the test on EKVX NSCLC, 13.6 µM; with IGROV1 ovarian it was 18.8 µM.

Take `O=c1c2c(=NCCN3CCCC3)cc3c(=O)n(CCCN4CCOCC4)c(=O)c4ccc(c(O)n1CCCN1CCOCC1)c2c4-3`: the GI50 is 0.0752 µM in the test on MCF7 breast; 0.0577 µM in the test on HOP-62 NSCLC; 0.192 µM with LOX IMVI melanoma; 0.129 µM with HOP-92 NSCLC; 0.102 µM in the test with NCI-H522 lung; 0.381 µM in the test with SK-OV-3 ovarian. Also, the GI50 in the test with SK-MEL-5 melanoma is 0.442 µM; in the test on HL-60(TB) leukemia it was 0.338 µM; with EKVX NSCLC it was 0.153 µM; in the test with IGROV1 ovarian it was 0.0479 µM. In addition, the TGI amounted to 1.13 µM in the test with MCF7 breast; 0.832 µM in the test on HOP-62 NSCLC; 0.443 µM with LOX IMVI melanoma; 0.607 µM in the test with HOP-92 NSCLC; 0.438 µM with NCI-H522 lung; 2.15 µM in the test with SK-OV-3 ovarian. The TGI with SK-MEL-5 melanoma is 0.918 µM; with HL-60(TB) leukemia, 1.43 µM; in the test with EKVX NSCLC it was 0.427 µM; with IGROV1 ovarian, 1.5 µM.

On to `COc1ccc(/C=N\NC(=O)c2ccc3nc(-c4ccc(Cl)cc4)[nH]c3c2)cc1`, for which the GI50 in the test with MCF7 breast is 1.47 µM; in the test with HOP-62 NSCLC, 1.88 µM; with LOX IMVI melanoma, 2.19 µM; in the test with HOP-92 NSCLC, 1.52 µM; with NCI-H522 lung it was 7.6 µM; with SK-OV-3 ovarian, 2.3 µM. The GI50 was 1.89 µM with SK-MEL-5 melanoma, 13 µM in the test with HL-60(TB) leukemia, 2.11 µM in the test on EKVX NSCLC and 1.65 µM with IGROV1 ovarian. Besides, the TGI in the test on MCF7 breast worked out at 3.84 µM; with HOP-62 NSCLC, 6.37 µM; with LOX IMVI melanoma it was 4.01 µM; in the test with HOP-92 NSCLC it was 4.11 µM; in the test with NCI-H522 lung, 81.5 µM; in the test on SK-OV-3 ovarian, 12.8 µM. Also, the TGI in the test on SK-MEL-5 melanoma is 3.88 µM; with HL-60(TB) leukemia, > 100 µM; in the test on EKVX NSCLC, 5.84 µM; in the test on IGROV1 ovarian, 3.97 µM.
